{
  "source": "patent US9957236B2",
  "about": "“Selective inhibitors interfering with fibroblast growth factor receptor and FRS2 interaction for the prevention and treatment of cancer and other diseases” (LIMITED LIABILITY COMPANY “RUSSIAN PHARMACEUTICAL …, priority 2014, dated 2018)",
  "key": {"PI3K": {"tested_on": "PI3K", "assay": "Western blotting of PI3K phosphorylation in HUVEC, Caki-1, KATO III cells", "type": "cell-based", "details": "P=0.017", "description": "(§1) According to the procedure described above, the phosphorylation levels of type 1-3 fibroblast growth factor receptors, FRS2, and also phosphorylation levels of VEGFR1 and intracellular kinases PI3K, p44/42(MAPK), Akt, mTOR were analyzed by the Western-blotting method.\n(§2) Endothelial cells HUVEC, human renal cell carcinoma of Caki-1 type, stomach cancer cells KATO III were used in the research. All the mentioned cells expressed various types of the mentioned receptors. Just like in Example 5, a part of the cells stimulated FGF-2 and/or VEGF-A, a part of the cells was cultivated with the inhibitor described by Formula VIII, a part of the cells left without stimulation and treatment."}, "FGFR2 [1]": {"target": "FGFR2 (Homo sapiens, UniProt P21802)", "sequence (P21802 22-821, species assumed)": "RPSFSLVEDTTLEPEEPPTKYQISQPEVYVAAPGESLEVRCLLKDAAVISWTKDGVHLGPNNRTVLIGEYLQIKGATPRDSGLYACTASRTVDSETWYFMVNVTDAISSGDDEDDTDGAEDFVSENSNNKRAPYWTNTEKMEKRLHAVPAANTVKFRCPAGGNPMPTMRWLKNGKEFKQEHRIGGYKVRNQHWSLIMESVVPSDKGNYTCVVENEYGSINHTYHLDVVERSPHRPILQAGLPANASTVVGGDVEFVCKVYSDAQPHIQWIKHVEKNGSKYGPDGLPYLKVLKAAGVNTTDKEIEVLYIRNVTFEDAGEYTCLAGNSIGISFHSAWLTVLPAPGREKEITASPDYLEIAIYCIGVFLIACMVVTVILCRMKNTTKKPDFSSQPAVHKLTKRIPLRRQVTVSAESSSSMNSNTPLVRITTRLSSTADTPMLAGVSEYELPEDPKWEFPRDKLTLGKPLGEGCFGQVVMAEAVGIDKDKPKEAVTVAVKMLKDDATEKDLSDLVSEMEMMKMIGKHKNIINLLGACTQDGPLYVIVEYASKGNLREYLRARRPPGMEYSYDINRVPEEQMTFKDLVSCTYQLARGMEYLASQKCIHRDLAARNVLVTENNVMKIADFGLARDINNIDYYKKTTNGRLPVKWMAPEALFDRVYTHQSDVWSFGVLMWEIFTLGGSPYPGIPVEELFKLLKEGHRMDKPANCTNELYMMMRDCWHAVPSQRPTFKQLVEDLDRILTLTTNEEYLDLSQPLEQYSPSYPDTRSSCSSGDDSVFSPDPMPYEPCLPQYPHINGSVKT", "assay": "Western blotting of FGFR2 phosphorylation in HUVEC, Caki-1, KATO III cells", "type": "cell-based", "description": "as §1, §2"}, "FGFR3": {"target": "T1, FGFR3 (Homo sapiens, UniProt P22607)", "T1 construct": "endogenous in cells; host or cells: HUVEC, Caki-1, KATO III", "T1 sequence (P22607 23-806)": "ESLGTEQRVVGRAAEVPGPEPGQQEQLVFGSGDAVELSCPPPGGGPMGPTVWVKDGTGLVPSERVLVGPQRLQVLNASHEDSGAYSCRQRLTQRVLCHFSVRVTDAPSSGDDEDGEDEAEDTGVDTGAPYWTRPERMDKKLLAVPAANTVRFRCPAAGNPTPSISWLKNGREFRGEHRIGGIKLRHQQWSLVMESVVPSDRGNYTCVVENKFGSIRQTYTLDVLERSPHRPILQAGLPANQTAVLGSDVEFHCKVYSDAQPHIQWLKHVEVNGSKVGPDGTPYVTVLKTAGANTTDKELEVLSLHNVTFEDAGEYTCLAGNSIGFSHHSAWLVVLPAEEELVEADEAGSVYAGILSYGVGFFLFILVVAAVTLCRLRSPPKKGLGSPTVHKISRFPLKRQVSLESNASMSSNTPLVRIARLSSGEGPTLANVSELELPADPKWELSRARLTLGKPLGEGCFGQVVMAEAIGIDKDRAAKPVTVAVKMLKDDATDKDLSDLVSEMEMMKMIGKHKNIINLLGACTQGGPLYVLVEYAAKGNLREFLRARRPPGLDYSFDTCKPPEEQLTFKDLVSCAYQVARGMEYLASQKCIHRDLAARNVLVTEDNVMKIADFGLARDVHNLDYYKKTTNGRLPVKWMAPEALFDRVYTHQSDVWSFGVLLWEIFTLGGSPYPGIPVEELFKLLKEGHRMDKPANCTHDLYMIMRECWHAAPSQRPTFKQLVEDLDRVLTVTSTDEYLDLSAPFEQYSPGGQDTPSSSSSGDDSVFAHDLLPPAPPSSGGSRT", "assay": "Western blotting of FGFR3 phosphorylation in HUVEC, Caki-1, KATO III cells", "type": "cell-based", "description": "as §1, §2"}, "VEGFR1": {"target": "T2, VEGFR1 (Homo sapiens, UniProt P17948)", "T2 construct": "endogenous in cells; host or cells: HUVEC, Caki-1, KATO III", "T2 sequence (P17948 27-1338)": "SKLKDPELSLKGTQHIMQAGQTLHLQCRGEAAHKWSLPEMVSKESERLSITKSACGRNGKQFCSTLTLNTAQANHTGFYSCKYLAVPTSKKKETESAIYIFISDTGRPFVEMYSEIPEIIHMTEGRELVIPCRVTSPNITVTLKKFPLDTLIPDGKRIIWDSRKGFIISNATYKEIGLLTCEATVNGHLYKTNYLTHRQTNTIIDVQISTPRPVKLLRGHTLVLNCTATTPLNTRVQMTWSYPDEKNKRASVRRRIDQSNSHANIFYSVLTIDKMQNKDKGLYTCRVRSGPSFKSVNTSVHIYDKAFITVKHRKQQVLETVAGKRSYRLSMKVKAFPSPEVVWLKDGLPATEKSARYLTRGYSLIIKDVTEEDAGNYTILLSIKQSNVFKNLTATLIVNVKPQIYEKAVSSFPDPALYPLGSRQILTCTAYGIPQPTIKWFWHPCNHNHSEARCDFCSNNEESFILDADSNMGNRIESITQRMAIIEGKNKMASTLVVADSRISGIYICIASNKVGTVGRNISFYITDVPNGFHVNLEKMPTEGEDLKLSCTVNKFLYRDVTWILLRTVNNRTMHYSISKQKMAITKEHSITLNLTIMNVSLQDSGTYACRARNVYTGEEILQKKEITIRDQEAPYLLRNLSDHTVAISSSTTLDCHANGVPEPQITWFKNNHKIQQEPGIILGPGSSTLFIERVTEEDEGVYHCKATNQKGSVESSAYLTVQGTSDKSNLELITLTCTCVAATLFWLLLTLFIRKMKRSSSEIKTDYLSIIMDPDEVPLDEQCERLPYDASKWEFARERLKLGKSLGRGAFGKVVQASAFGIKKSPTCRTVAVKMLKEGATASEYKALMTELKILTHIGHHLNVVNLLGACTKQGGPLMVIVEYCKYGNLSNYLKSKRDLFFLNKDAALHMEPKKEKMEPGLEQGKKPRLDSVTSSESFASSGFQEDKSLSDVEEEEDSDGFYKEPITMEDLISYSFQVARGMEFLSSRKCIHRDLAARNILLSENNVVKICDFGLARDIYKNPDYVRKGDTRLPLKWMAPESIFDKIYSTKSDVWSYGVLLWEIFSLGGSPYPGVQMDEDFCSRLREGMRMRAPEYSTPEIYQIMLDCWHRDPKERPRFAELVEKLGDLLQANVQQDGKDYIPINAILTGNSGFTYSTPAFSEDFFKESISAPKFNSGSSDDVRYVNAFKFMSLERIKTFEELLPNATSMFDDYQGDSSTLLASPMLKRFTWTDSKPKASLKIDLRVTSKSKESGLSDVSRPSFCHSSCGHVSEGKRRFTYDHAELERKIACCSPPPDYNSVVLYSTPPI", "assay": "Western blotting of VEGFR1 phosphorylation in HUVEC, Caki-1, KATO III cells", "type": "cell-based", "description": "as §1, §2"}, "FGFR1": {"target": "T3, FGFR1 (Homo sapiens, UniProt P11362)", "T3 construct": "endogenous in cells; host or cells: HUVEC, Caki-1, KATO III", "T3 sequence (P11362 22-822)": "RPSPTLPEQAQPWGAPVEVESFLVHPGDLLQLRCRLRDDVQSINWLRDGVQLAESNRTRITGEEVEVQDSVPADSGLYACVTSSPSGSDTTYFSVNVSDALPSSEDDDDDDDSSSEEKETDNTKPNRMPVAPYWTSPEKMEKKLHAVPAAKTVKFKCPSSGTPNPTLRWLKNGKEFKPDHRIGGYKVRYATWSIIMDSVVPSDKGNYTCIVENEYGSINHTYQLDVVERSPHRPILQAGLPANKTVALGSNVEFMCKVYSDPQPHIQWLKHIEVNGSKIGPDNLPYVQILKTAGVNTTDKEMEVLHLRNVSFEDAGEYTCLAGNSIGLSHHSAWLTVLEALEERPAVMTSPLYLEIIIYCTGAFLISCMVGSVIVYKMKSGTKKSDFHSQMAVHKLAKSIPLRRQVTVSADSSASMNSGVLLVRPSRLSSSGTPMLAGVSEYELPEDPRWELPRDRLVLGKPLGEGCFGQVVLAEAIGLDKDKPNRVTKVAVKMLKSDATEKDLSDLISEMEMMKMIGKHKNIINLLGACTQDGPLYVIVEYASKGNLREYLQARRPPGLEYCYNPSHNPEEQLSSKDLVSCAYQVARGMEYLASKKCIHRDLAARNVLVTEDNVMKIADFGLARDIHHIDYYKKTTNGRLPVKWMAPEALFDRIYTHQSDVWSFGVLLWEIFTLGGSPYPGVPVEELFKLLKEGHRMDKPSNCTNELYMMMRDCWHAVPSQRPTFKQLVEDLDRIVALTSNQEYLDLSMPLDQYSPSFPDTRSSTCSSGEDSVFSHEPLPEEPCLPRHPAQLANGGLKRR", "assay": "Western blotting of FGFR1 phosphorylation in HUVEC, Caki-1, KATO III cells", "type": "cell-based", "description": "as §1, §2"}, "p44/42(MAPK), Akt, mTOR": {"tested_on": "p44/42(MAPK), Akt, mTOR", "assay": "Western blotting of other kinases in HUVEC, Caki-1, KATO III cells", "type": "cell-based", "description": "as §1, §2"}, "FRS2 [2]": {"target": "T4, FRS2 (Homo sapiens, UniProt Q8WU20)", "T4 sequence (Q8WU20 1-508)": "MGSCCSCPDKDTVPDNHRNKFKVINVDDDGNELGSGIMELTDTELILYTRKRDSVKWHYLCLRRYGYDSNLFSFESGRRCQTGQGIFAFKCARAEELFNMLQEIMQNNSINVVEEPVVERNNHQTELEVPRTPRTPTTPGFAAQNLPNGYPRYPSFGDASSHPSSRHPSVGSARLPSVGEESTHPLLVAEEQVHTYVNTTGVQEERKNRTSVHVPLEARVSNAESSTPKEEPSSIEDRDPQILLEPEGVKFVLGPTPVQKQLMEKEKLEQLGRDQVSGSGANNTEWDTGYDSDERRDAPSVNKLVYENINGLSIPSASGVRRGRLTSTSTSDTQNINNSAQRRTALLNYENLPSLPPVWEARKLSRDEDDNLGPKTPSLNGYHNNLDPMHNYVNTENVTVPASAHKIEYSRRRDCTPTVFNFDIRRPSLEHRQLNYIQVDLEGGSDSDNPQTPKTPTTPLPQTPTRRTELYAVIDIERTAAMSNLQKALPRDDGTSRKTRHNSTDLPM", "assay": "Western blotting of FRS2 phosphorylation in HUVEC, Caki-1, KATO III cells", "type": "cell-based", "design": "endogenous in cells", "details": "P=0.001", "description": "as §1, §2"}, "[3]": {"tested_on": "collagen-induced arthritis", "assay": "Collagen-induced arthritis model", "type": "in vivo", "details": "mice, 100 mg/kg through a tube for 40 days", "description": "Collagen-induced arthritis model was used in the research. Arthritic was induced in mice by intradermal injections of collagen of the II type combined with Freund's adjuvant. The mice were randomized into 2 groups of 5 animals in each one: • group 1: control, water through a tube for 40 days. • group 2: inhibitor described by formula III in this invention, 100 mg/kg, through a tube for 40 days. On the 40 day, the mice were subjected to euthanasia, the tissue was studied."}, "[4]": {"tested_on": "angiogenesis stimulated by bFGF", "assay": "Matrigel implant angiogenesis stimulated by bFGF", "type": "in vivo, mice", "details": "Matrigel implants in mice; intraperitoneally day 0, 3, 6; RPT835 15 mg/kg, Bevacizumab 10 mg/kg", "description": "(§3) Eighteen hybrid mice of the 1 generation F1 (C57B1/6×DBA/2), males with a weight of 22-30 g are used in the research. The mice (nomenclature number M02.13.00011) were received from a branch of nursery “Stolbovaya”. The method described earlier was used in the experiment [Passaniti A., 1992]. The control and experiment groups had at least 3 mice. Aliquots (1,000 mcl) of Matrigel (BD Biosciences) containing heparin 60 conventional units/ml, VEGF (200 ng/ml, BD Biosciences) or bFGF (100 ng/ml, BD Biosciences) were prepared on ice. Matrigel containing heparin 60 conventional units/ml was used as negative control. Matrigel was injected in the mice subcutaneously into the side part of the back. After injection, Matrigel quickly forms single, hard gel-like implant. A weight of the inhibitor was dissolved in DMSO to concentration of 10^−2M. Aliquots were frozen down to −20° C. and unfrozen immediately before injection. Refreezing of the solution was not allowed. The tested and standard objects were administered intraperitoneally on the 0, 3 and 6 day of Matrigel impintation: Bevacizumab in a dose of 10 mg/kg and RPT835-15 mg/kg. Seven days after administration of Matrigel, the mice were put into sleep with diethyl ether to remove the implant. The implants were fixed for 24-36 hours in 10% neutral formalin and enclosed in paraffin for further histological research."}, "[5]": {"tested_on": "angiogenesis in the implants containing VEGF", "assay": "Matrigel implant angiogenesis stimulated by VEGF", "type": "in vivo", "details": "Matrigel implants in mice; 10 mg/kg intraperitoneally day 0, 3, 6; p<0.001", "description": "as §3"}, "FRS2 [6]": {"target": "T4, FRS2", "assay": "FRS2 phosphorylation in FGF-2-stimulated Snu16 cells (Western blotting)", "type": "cell-based", "design": "endogenous in cells; host or cells: Snu16", "details": "FGF-2 stimulation", "description": "By way of chemical synthesis we received the specified compounds. Stomach cancer cells Snu16 expressing FGFR2 were cultivated according to the standard method. A part of the cells was left for negative control, FGF-2 was added to the other part (positive control). Therapeutic groups included: addition of the inhibitor according to formula V and subsequent stimulation of FGF-2, addition of the inhibitor according to formula IX and subsequent stimulation of FGF-2, addition of the inhibitor according to formula XI and subsequent stimulation of FGF-2. The Western-blotting method was used for assessment of the phosphorylation level of various kinases."}, "HUVEC": {"tested_on": "HUVEC", "assay": "Proliferation of endothelial cells HUVEC with FGF-2", "type": "cell-based", "details": "Homo sapiens, FGF-2 25 ng/ml, 96 hours, read-out: Cell growth suppression, IC50", "description": "Endothelial cells HUVEC were sawn in 96-cavity plates and cultivate for 24 hours. After that, the following was added to the cells: • 1) inhibitor RPT835, or • 2) inhibitor described by Formula IX in this invention, or • 3) brivanib—multi-kinase inhibitor of FGFR/VEGFR, and also to all cells—FGF-2 in a concentration of 25 ng/ml.\nThe cells were cultivated for 96 hours in general and then were calculated."}, "FGFR2 [7]": {"tested_on": "FGFR2", "assay": "Automated Western blotting of FGFR2 phosphorylation in Snu16 cells", "type": "cell-based", "details": "100 mcg/ml, FGF-2 stimulation", "description": "(§4) Stomach cancer cells Snu16 were sawn in 96-cavity plates with a size of 90 mcl/cavity. After 24 hours of incubation in a damped incubator at a temperature of 37 C, 5% CO2 and 95% air to cells were the tested dissolved agent described by formula VI in the volume of 100 mcg/ml, and then FGF-2 was added as a stimulator.\n(§5) After the days of cultivation by the method of automated Western-blotting, the phosphorylation level of the following proteins: FGFR2, FRS2α, FRS2β, Shp2, Grb2 was studied in the cells. After another 24 hours of the cultivation, the cells were counted."}, "FRS2α and FRS2β": {"tested_on": "FRS2α and FRS2β", "assay": "Automated Western blotting of FRS2α and FRS2β phosphorylation in Snu16 cells", "type": "cell-based", "details": "FGF-2 stimulation", "description": "as §4, §5"}, "Shp2 and Grb2": {"tested_on": "Shp2 and Grb2", "assay": "Automated Western blotting of Shp2 and Grb2 phosphorylation in Snu16 cells", "type": "cell-based", "details": "noted in some cells", "description": "as §4, §5"}, "Snu16 cells": {"tested_on": "Snu16 cells", "assay": "Proliferation of stomach cancer cells Snu16 (cell count)", "type": "cell-based", "description": "as §4, §5\nAfter the next cultivation the number of the cells equaled between the groups, and also with the control (stimulation of FGF-2, without cultivation with the inhibitor). See the results in Table 1."}},
  "data": [
    {"compound": "O=C1CN(C(=O)c2cccc(C(=O)O)c2)c2ccccc2N1", "note": "[Inhibitor VIII, 3-(3-oxo-1,2,3,4-tetrahydroquinoxaline-1-carbonyl)benzoic acid]", "values": [
      {"measurement": "decrease of phosphorylation of PI3K", "setting": "PI3K", "value": 10, "unit": "times"},
      {"measurement": "decrease of phosphorylation of FGFR2 (weakly)", "setting": "FGFR2 [1]", "value": 1.5, "unit": "times"},
      {"measurement": "decrease of phosphorylation of FGFR3 (weakly)", "setting": "FGFR3", "value": 1.8, "unit": "times"},
      {"measurement": "decrease of phosphorylation of VEGFR1 (weakly)", "setting": "VEGFR1", "value": 2.3, "unit": "times"},
      {"measurement": "level of FGFR1 phosphorylation", "setting": "FGFR1", "value": "even increased"},
      {"measurement": "influence on other kinases", "setting": "p44/42(MAPK), Akt, mTOR", "value": "did not have influence on other kinases"},
      {"measurement": "decrease of phosphorylation of FRS2", "setting": "FRS2 [2]", "value": 14, "unit": "times"}
    ]},
    {"compound": "Cc1cc([N+](=O)[O-])c(NS(=O)(=O)c2cccc(C(=O)O)c2)cc1-c1cncnc1", "note": "[Inhibitor III, 3-(N-(4-methyl-2-nitro-5-(pyrimidin-5-yl)phenyl)sulfamoyl)benzoic acid]", "values": [
      {"measurement": "tissue findings (infiltration)", "setting": "[3]", "value": "Only insignificant infiltration with single neutrophils"}
    ]},
    {"compound": "Bevacizumab: standard object blocking VEGF-stimulated angiogenesis, 10 mg/kg [reference compound]", "values": [
      {"measurement": "angiogenesis stimulated by bFGF", "setting": "[4]", "value": "but not angiogenesis induced by bFGF"},
      {"measurement": "angiogenesis in the implants containing VEGF", "setting": "[5]", "value": "completely blocked"}
    ]},
    {"compound": "O=C(O)c1cccc(Nc2cccc3ncccc23)c1", "note": "[Inhibitor XI, 3-(quinoline-5-ylamine)benzoic acid]", "values": [
      {"measurement": "transmission of the signal from FGFR to FRS2", "setting": "FRS2 [6]", "value": "interfere with transmission of the signal from FGFR to FRS2"}
    ]},
    {"compound": "Cc1cc2c(F)c(Oc3ncnn4cc(OC[C@@H](C)O)c(C)c34)ccc2[nH]1", "note": "[Brivanib, reference compound]", "values": [
      {"measurement": "IC50", "setting": "HUVEC", "value": 0.289, "unit": "µM"}
    ]},
    {"compound": "Cc1cc(N)c(NS(=O)(=O)c2cccc(C(=O)O)c2)cc1-c1cncnc1", "note": "[Inhibitor V, 3-(N-(2-amino-4-methyl-5-(pyrimidin-5-yl)phenyl)sulfamoyl)benzoic acid]", "values": [
      {"measurement": "transmission of the signal from FGFR to FRS2", "setting": "FRS2 [6]", "value": "interfere with transmission of the signal from FGFR to FRS2"}
    ]},
    {"compound": "CC1C(=O)Nc2ccccc2N1C(=O)c1cccc(C(=O)O)c1", "note": "(stereo not drawn) [Inhibitor IX, 3-(2-methyl-3-oxo-1,2,3,4-tetrahydroquinoxalyne-1-carbonyl)benzoic acid]", "values": [
      {"measurement": "IC50", "setting": "HUVEC", "value": 0.032, "unit": "µM"},
      {"measurement": "transmission of the signal from FGFR to FRS2", "setting": "FRS2 [6]", "value": "interfere with transmission of the signal from FGFR to FRS2"}
    ]},
    {"compound": "Cc1cc(NNc2cc(C)c(-c3cccnc3)cc2NS(=O)(=O)c2cccc(C(=O)O)c2)c(NS(=O)(=O)c2cccc(C(=O)O)c2)cc1-c1cccnc1", "note": "[Inhibitor VI]", "values": [
      {"measurement": "phosphorylation of FGFR2", "setting": "FGFR2 [7]", "value": "did not suppress"},
      {"measurement": "IC50", "setting": "FRS2α and FRS2β", "value": "< 0.01", "unit": "µM"},
      {"measurement": "suppression of phosphorylation of FRS2α and FRS2β", "setting": "FRS2α and FRS2β", "value": 12, "unit": "times"},
      {"measurement": "suppression of Shp2 and Grb2 protein phosphorylation", "setting": "Shp2 and Grb2", "value": "more than 10 times"},
      {"measurement": "proliferation compared with control group", "setting": "Snu16 cells; group with phosphorylation suppression of FRS2 and Shp2 and/or Grb2, P < 0.0001", "value": "suppression,"},
      {"measurement": "proliferation compared with control group", "setting": "Snu16 cells; group with phosphorylation suppression of FRS2 and without influence on phosphorylation of Shp2 and/or Grb2, P < 0.0001", "value": "suppression,"}
    ]}
  ]
}
